For test [1], the target named is T1, histamine H2 -receptors (Cavia porcellus, UniProt P47747).
T1 construct: isolated guinea pig atria suspended in an organ bath (50 ml); from tissue; host or cells: isolated guinea pig atria
The experiment in a line: In vitro inhibition of histamine induced tachycardia (positive chronotropic effect), isolated guinea pig atria. The format is cell-based. As to conditions: 32° C., pH 7.4, 30 minutes contact before histamine 10^-6 g.ml^-1. The protocol:
The myocardial preparation, loaded with 1 g isometric tension, was allowed to stabilize 60 minutes, and myocardial contractions were recorded through an isometric lever connected to a strain-gauge coupler and the instantaneous rate was monitored with a cardiotachometer, and a heatwriting pen recorder. After two control responses to histamine (10^-6 g.ml^-1) the test compound was added to the bath at the desired final concentration and left for 30 minutes before the atria were again challenged with histamine. The chronotropic response obtained in the presence of the antagonist was then compared to the control response to histamine, and the percent reduction of the histamine H2 -evoked response was calculated. […] 3, Smooth muscle, Ed. Daniel E. E. Paton, M., Plenum Press, New York, (1975); Ash and Schild, Br. J. Pharmacol. Chemother. 27, 427-439, 1966.

For test [2], the target named is T2, histamine H2 -receptors (Rattus norvegicus, UniProt P25102).
T2 construct: from tissue; host or cells: stomach of the living, anaesthetised rat (in vivo)
T2 sequence (P25102 whole entry): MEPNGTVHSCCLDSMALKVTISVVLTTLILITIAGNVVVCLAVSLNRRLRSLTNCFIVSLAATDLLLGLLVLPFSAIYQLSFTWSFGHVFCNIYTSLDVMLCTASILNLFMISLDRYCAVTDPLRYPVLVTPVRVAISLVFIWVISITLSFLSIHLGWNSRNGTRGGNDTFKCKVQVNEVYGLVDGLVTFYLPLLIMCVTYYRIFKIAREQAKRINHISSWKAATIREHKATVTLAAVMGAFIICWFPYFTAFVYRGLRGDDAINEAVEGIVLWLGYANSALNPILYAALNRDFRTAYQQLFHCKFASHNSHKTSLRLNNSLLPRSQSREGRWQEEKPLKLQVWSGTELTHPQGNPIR
The test can be described thus: In vivo antisecretory activity in histamine-induced gastric secretion (stomach-perfused rat). The conditions noted are these: i.v., histamine 1 mg.kg^-1 hr^-1 intravenous, urethane anesthesia, values expressed taking the compound as a base. An excerpt:
The ability of the test compounds to inhibit histamine-induced gastric secretion of acid was investigated after intravenous or intraduodenal administration in stomach-perfused rats, according to Gosh and Schild (Br. J. Pharmacol. Chemother. 13, 54, 1958).
The preparation of the animals under general anesthesia (urethane, lg.kg^-1 i.p.) and constant temperature, was achieved by inserting and tying in place polyethylene tubes (PE 50) in the esophagus and in the pyloric-antral region. After the stomach was washed to remove residual of foods, continuous perfusion of the stomach was started with saline, 0.5 ml.min^-1 (37° C.), primed by a Jobling peristaltic pump. After 30 minutes of perfusion adaptation, the stomach perfusate was collected in 30 minute samples, and titrated for acid content, expressed as μEq of NaOH 1N. As control acid output became constant, intravenous perfusion of histamine (1 mg.kg^-1 hr^-1) was started and maintained throughout the experimental period. After the acid secretion had reached the steadily higher level, increasing doses of the test compound were injected intravenously in order to obtain dose-response functions. The ED50 was then calculated by standard procedure.

A further test concerns gastric acid secretion. As to conditions: prior art statement; cited from earlier work.

T1 sequence (P47747 whole entry): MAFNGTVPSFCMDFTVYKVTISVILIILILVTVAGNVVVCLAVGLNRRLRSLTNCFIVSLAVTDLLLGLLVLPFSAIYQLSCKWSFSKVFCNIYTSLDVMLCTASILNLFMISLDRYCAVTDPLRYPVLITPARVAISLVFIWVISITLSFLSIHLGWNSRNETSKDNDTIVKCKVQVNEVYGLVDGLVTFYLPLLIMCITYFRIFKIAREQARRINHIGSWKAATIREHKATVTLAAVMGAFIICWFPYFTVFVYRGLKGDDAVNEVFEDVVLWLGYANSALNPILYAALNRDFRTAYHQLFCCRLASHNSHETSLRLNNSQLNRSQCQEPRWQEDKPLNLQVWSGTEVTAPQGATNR

As a reminder, the EC50 is the concentration needed to bring the measured effect to its halfway point. A higher EC50 goes with a less potent agent. The ED50 is the dose that gives a 50% effect, or the effect in half of the subjects. For `CC(O)CNC=Nc1ccc(-c2c[nH]cn2)cc1` (stereo not drawn) [6 (a), N-(2-hydroxypropyl)-N'-[4-(imidazol-4-yl)-phenyl]-formamidine], the EC50 on histamine H2 -receptors [1] stood at 1270 nM. The same compound returned an ED50 at histamine H2 -receptors [2] of 0.043 mg/kg.
For `CSCCNC=Nc1ccc(-c2c[nH]cn2)cc1` [6 (b), N-(2-Methylthio-ethyl)-N'-[4-(imidazol-4-yl)-phenyl]-formamidine] the same measures were 327 nM and 0.022 mg/kg.
On the same counts, the results for `N#CCCNC=Nc1ccc(-c2c[nH]cn2)cc1` [6 (j), N-(2-Cyano-ethyl)-N'-[4-(imidazol-4-yl)-phenyl]-formamidine] are 1600 nM and 0.046 mg/kg.
On the same counts, the results for `CCCCNC=Nc1ccc(-c2c[nH]cn2)cc1C` [6 (k), N-n-Butyl-N'-[4-(imidazol-4-yl)-2-methyl-phenyl]-formamidine] are 309 nM and 0.078 mg/kg.
Turning to `C=CCNC=Nc1ccc(-c2c[nH]cn2)cc1C` [6 (l), N-Allyl-N'-[4-(imidazol-4-yl)-2-methyl-phenyl]-formamidine], at histamine H2 -receptors [1], the EC50 was determined as 294 nM. For the same compound, on histamine H2 -receptors [2], the ED50 amounted to 0.09 mg/kg.
For `CCCNC=Nc1ccc(-c2c[nH]cn2)cc1OC` [6 (m), N-Propyl-N'-[2-methoxy-4-(imidazol-4-yl)-phenyl]-formamidine] the same measures were 600 nM and 0.059 mg/kg.
On the same counts, the results for `CCOCSCCNC=Nc1ccc(-c2c[nH]cn2)cc1` [8 (b), N-(2-Ethoxymethylthio-ethyl)-N'-[4-(imidazol-4-yl)-phenyl]-formamidine] are 320 nM and 0.083 mg/kg.
For the compound `CCCNC=Nc1ccc(-c2c[nH]cn2)cc1Br` [8 (c), N-n-Propyl-N'-[2-bromo-4-(imidazol-4-yl)-phenyl]-formamidine], the EC50 on histamine H2 -receptors [1] came out at 350 nM. The compound further registered an ED50 on histamine H2 -receptors [2] of 0.117 mg/kg.
Consider `CN/C(=N/CCSCc1nc[nH]c1C)NC#N` [CIMETIDINE, cimetidine], for which the “effect on gastric acid secretion” value with gastric acid secretion is given as “capable of antagonizing gastric acid secretion”.
Take `COCCN=CNc1ccc(-c2c[nH]cn2)cc1` [Example 6, N-(2-Methoxy-ethyl)-N'-[4-(imidazol-4-yl)-phenyl]-formamidine]: at histamine H2 -receptors [1], it took 588 nM to reach a half-maximal effect (EC50). In addition, at histamine H2 -receptors [2], it took a dose of 0.05 mg/kg to reach the 50% effect level (ED50).
Turning to `CNC(=S)NCCCCc1cnc[nH]1` [burimamide], the “effect on gastric acid secretion” value with gastric acid secretion is given as “capable of antagonizing gastric acid secretion”.
`COc1ccc(CN(CCN(C)C)c2ccccn2)cc1` [mepyramine]: in the test with gastric acid secretion, the “effect on gastric acid secretion” value is listed as “no effect on gastric acid secretion”.
With `C/N=C(\S)NCCSCc1[nH]cnc1C` [metiamide], in the test with gastric acid secretion, the “effect on gastric acid secretion” value is listed as “capable of antagonizing gastric acid secretion”.
`CNC(=C[N+](=O)[O-])NCCSCc1ccc(CN(C)C)o1` [ranitidine]: the “effect on gastric acid secretion” value in the test with gastric acid secretion is on record as “capable of antagonizing gastric acid secretion to a greater extent than cimetidine”.
On to `CNC(=NCCSCc1csc(N=C(N)N)n1)NC#N` [tiotidine], for which the “effect on gastric acid secretion” value with gastric acid secretion was “capable of antagonizing gastric acid secretion to a greater extent than cimetidine”.

(Values after US4666932A, “Formamidine derivatives and pharmaceutical use” (Istituto de Angeli S.p.A., priority 1982, dated 1987).)
